From patent US20160206688A1, “METHODS FOR TREATING BACTEREMIA AND OSTEOMYELITIS USING ORITAVANCIN” (THE MEDICINES COMPANY, priority 2013, published 2016)
Values after ≈ are worked out from the molar mass of the structure shown. Like-named read-outs stand apart in the source and are kept apart here.

How the values were obtained:
[1] = tested on: Coagulase-negative staphylococci; experiment: Broth microdilution MIC, European bacteraemia isolates 2010-2012; type: cell-based, coagulase-negative staphylococci (CoNS)
Summary of the method: (§1)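 Bacteraemia isolates from European, Israeli, Russian, Turkish and Ukrainian hospitals (2010-2012) tested centrally by CLSI M07-A9 broth microdilution in cation-adjusted Mueller-Hinton broth with 0.002% polysorbate-80. QC strains E. faecalis ATCC 29212 and S. aureus ATCC 29213; interpretation per CLSI M100-S23 and EUCAST 2013.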

[2] = tested on: exponentially-growing S. aureus; conditions: within 15 minutes to 2 hours; MSSA, MRSA, and VRSA; cited from earlier work
E. faecalis = experiment: Broth microdilution MIC, European bacteraemia isolates 2010-2012; type: cell-based, Enterococcus faecalis
Summary of the method: as §1

[3] = CoNS, Methicillin-resistant (509), at ≦0.008 mg/L
[4] = CoNS, Methicillin-susceptible (137), at ≦0.008 mg/L
[5] = CoNS, Teicoplanin MIC ≧8 mg/L (72), at ≦0.008 mg/L
[6] = Table 1, CoNS, Methicillin-resistant (509)
[7] = Table 1, CoNS, Methicillin-susceptible (137)
[8] = Table 2, Coagulase-negative staphylococci (646)
[9] = read-out: cumulative % inhibited at MIC
[10] = E. faecalis (445), at ≦0.008 mg/L
[11] = Enterococcus faecalis, read-out: cumulative % inhibited at MIC

With `CN[C@H](CC(C)C)C(=O)N[C@H]1C(=O)N[C@@H](CC(N)=O)C(=O)N[C@H]2C(=O)N[C@H]3C(=O)N[C@H](C(=O)N[C@H](C(=O)O)c4cc(O)cc(O)c4-c4cc3ccc4O)[C@H](O[C@H]3C[C@](C)(N)[C@@H](O)[C@H](C)O3)c3ccc(c(Cl)c3)Oc3cc2cc(c3O[C@@H]2O[C@H](CO)[C@@H](O)[C@H](O)[C@H]2O[C@H]2C[C@](C)(NCc3ccc(-c4ccc(Cl)cc4)cc3)[C@@H](O)[C@H](C)O2)Oc2ccc(cc2Cl)[C@H]1O` [Oritavancin, N-(4-(4-chlorophenyl)benzyl)A82846B] the “Number inhibited at MIC” value ([1]; CoNS, Methicillin-resistant (509), at 0.12 mg/L) was 33, the “Number inhibited at MIC” value ([1]; CoNS, Methicillin-resistant (509), at 0.25 mg/L) was 4 and the “Number inhibited at MIC” value [1, 3] was 100. The “cumulative % inhibited at MIC” value [1, 3] was 19.7%, the “Number inhibited at MIC” value ([1]; CoNS, Methicillin-susceptible (137), at 0.015 mg/L) was 28 and the “Number inhibited at MIC” value ([1]; CoNS, Methicillin-susceptible (137), at 0.03 mg/L) was 50. The “Number inhibited at MIC” value ([1]; CoNS, Methicillin-susceptible (137), at 0.06 mg/L) was 21, the “Number inhibited at MIC” value ([1]; CoNS, Methicillin-susceptible (137), at 0.12 mg/L) was 1 and the “Number inhibited at MIC” value [1, 4] was 37. For the same compound, the “cumulative % inhibited at MIC” value [1, 4] was 27.0%, the “Number inhibited at MIC” value ([1]; CoNS, Teicoplanin MIC ≧8 mg/L (72), at 0.015 mg/L) was 1 and the inhibition at 0.015 µg/mL ([1]; CoNS, Teicoplanin MIC ≧8 mg/L (72), at 0.015 mg/L, read-out: cumulative % inhibited at MIC) was 2.8%. For the same compound, the “Number inhibited at MIC” value ([1]; CoNS, Teicoplanin MIC ≧8 mg/L (72), at 0.03 mg/L) was 15, the inhibition at 0.03 µg/mL ([1]; CoNS, Teicoplanin MIC ≧8 mg/L (72), at 0.03 mg/L, read-out: cumulative % inhibited at MIC) was 23.6% and the “Number inhibited at MIC” value ([1]; CoNS, Teicoplanin MIC ≧8 mg/L (72), at 0.06 mg/L) was 36. The inhibition at 0.06 µg/mL ([1]; CoNS, Teicoplanin MIC ≧8 mg/L (72), at 0.06 mg/L, read-out: cumulative % inhibited at MIC) was 73.6%, the “Number inhibited at MIC” value ([1]; CoNS, Teicoplanin MIC ≧8 mg/L (72), at 0.12 mg/L) was 15 and the inhibition at 0.12 µg/mL ([1]; CoNS, Teicoplanin MIC ≧8 mg/L (72), at 0.12 mg/L, read-out: cumulative % inhibited at MIC) was 94.4%. The “Number inhibited at MIC” value ([1]; CoNS, Teicoplanin MIC ≧8 mg/L (72), at 0.25 mg/L) was 4, the inhibition at 0.25 µg/mL ([1]; CoNS, Teicoplanin MIC ≧8 mg/L (72), at 0.25 mg/L, read-out: cumulative % inhibited at MIC) was 100% and the “Number inhibited at MIC” value [1, 5] was 1. For the same compound, the “cumulative % inhibited at MIC” value [1, 5] was 1.4%, the MIC50 [1, 6] was 0.03 µg/mL (≈ 0.0167 µM) and the MIC90 [1, 6] was 0.06 µg/mL (≈ 0.0335 µM). For the same compound, the MIC50 [1, 7] was 0.03 µg/mL (≈ 0.0167 µM), the MIC90 [1, 7] was 0.06 µg/mL (≈ 0.0335 µM) and the MIC50 ([1]; Table 1, CoNS, Teicoplanin MIC ≧8 mg/L (72), read-out: MIC 50%) was 0.06 µg/mL (≈ 0.0335 µM). It also gave an MIC90 ([1]; Table 1, CoNS, Teicoplanin MIC ≧8 mg/L (72), read-out: MIC 90%) of 0.12 µg/mL (≈ 0.0669 µM), an MIC50 [1, 8] of 0.03 µg/mL (≈ 0.0167 µM) and an MIC90 [1, 8] of 0.06 µg/mL (≈ 0.0335 µM). For the same compound, the “MIC Range” value [1, 8] was “≦0.008-0.25 mg/L”, the inhibition at 0.015 µg/mL [1, 9] was 41.8% and the inhibition at 0.03 µg/mL [1, 9] was 79.4%. For the same compound, the inhibition at 0.06 µg/mL [1, 9] was 96.7%, the inhibition at 0.12 µg/mL [1, 9] was 100% and the inhibition at 0.015 µg/mL ([1]; read-out: cumulative % inhibited at MIC, CoNS, Methicillin-resistant (509), at 0.015 mg/L) was 34.8%. For the same compound, the inhibition at 0.03 µg/mL ([1]; read-out: cumulative % inhibited at MIC, CoNS, Methicillin-resistant (509), at 0.03 mg/L) was 70.3%, the inhibition at 0.06 µg/mL ([1]; read-out: cumulative % inhibited at MIC, CoNS, Methicillin-resistant (509), at 0.06 mg/L) was 92.7% and the inhibition at 0.12 µg/mL ([1]; read-out: cumulative % inhibited at MIC, CoNS, Methicillin-resistant (509), at 0.12 mg/L) was 99.2%. It also gave an inhibition at 0.25 µg/mL ([1]; read-out: cumulative % inhibited at MIC, CoNS, Methicillin-resistant (509), at 0.25 mg/L) of 100%, an inhibition at 0.015 µg/mL ([1]; read-out: cumulative % inhibited at MIC, CoNS, Methicillin-susceptible (137), at 0.015 mg/L) of 47.5% and an inhibition at 0.03 µg/mL ([1]; read-out: cumulative % inhibited at MIC, CoNS, Methicillin-susceptible (137), at 0.03 mg/L) of 83.9%. For the same compound, the inhibition at 0.06 µg/mL ([1]; read-out: cumulative % inhibited at MIC, CoNS, Methicillin-susceptible (137), at 0.06 mg/L) was 99.3%, the inhibition at 0.12 µg/mL ([1]; read-out: cumulative % inhibited at MIC, CoNS, Methicillin-susceptible (137), at 0.12 mg/L) was 100% and the “reduction (bactericidal activity)” value [2] was at least 3 log. For the same compound, the “Number inhibited at MIC” value (E. faecalis; E. faecalis (445), at 0.015 mg/L) was 204, the “Number inhibited at MIC” value (E. faecalis; E. faecalis (445), at 0.03 mg/L) was 89 and the “Number inhibited at MIC” value (E. faecalis; E. faecalis (445), at 0.06 mg/L) was 30. For the same compound, the “Number inhibited at MIC” value (E. faecalis; E. faecalis (445), at 0.12 mg/L) was 13, the “Number inhibited at MIC” value (E. faecalis; E. faecalis (445), at 0.25 mg/L) was 4 and the “Number inhibited at MIC” value (E. faecalis; E. faecalis (445), at 0.5 mg/L) was 1. The “Number inhibited at MIC” value (E. faecalis; [10]) was 104, the “cumulative % inhibited at MIC” value (E. faecalis; [10]) was 23.4% and the MIC50 (E. faecalis; Enterococcus faecalis) was 0.015 µg/mL (≈ 0.00837 µM). The MIC90 (E. faecalis; Enterococcus faecalis) was 0.06 µg/mL (≈ 0.0335 µM), the MIC (E. faecalis; Enterococcus faecalis, read-out: MIC values) was 0.12 to 0.5 µg/mL (≈ 0.0669 to 0.279 µM) and the inhibition at 0.015 µg/mL (E. faecalis; [11]) was 69.2%. The inhibition at 0.03 µg/mL (E. faecalis; [11]) was 89.2%, the inhibition at 0.06 µg/mL (E. faecalis; [11]) was 96% and the inhibition at 0.12 µg/mL (E. faecalis; [11]) was 98.9%. The inhibition at 0.25 µg/mL (E. faecalis; [11]) was 99.8%, the inhibition at 0.5 µg/mL (E. faecalis; [11]) was 100% and the “MIC 50%” value (E. faecalis; Table 1, E. faecalis (445)) was 0.015 µg/mL (≈ 0.00837 µM). For the same compound, the “MIC 90%” value (E. faecalis; Table 1, E. faecalis (445)) was 0.06 µg/mL (≈ 0.0335 µM), the “MIC Range” value (E. faecalis; Table 2, E. faecalis (445), includes four VanA-phenotype strains) was “≦0.008-0.5 mg/L” and the “concentration inhibiting all strains” value (E. faecalis; all E. faecalis, including resistant subsets) was at most 0.5 mg/L.
